Measured values: US6348445B1, “Biologically active peptides with reduced toxicity in animals and a method for preparing same” (priority 1992, dated 2002)
Like-named read-outs stand apart in the source and are kept apart here. Where no end group is shown, it is not given here.

Experiments:
[1] = test system: P. aeruginosa strain ATCC 27853; format: cell-based; details: ATCC 27853
How it was run: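 Broth microdilution per NCCLS M7-T2: final peptide levels 0.25 to 256 μg/ml (twofold steps), inoculum 1-5×10^5 CFUs/ml in full-strength Mueller Hinton broth. MIC read as lowest concentration leaving the well clear after 16-20 hours at 37° C.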

S. aureus ATCC 29213 = format: cell-based; details: ATCC 29213
[2] = MTD of repeat-dose intraperitoneal administration; format: in vivo, SCID mice; details: for MTD at 504 h: male, SCID (Fox Chase C.B-17/IcrTac-scidfDF), mouse, in vivo, ip
Description: Determinations of a maximal tolerated dose (MTD) of repeat-dose intraperitoneal (i.p.) administration of MSI-344 or MSI-1857 in 60 SCID mice were done. Mice were injected with various doses of MSI-344 or MSI-1857 twice or thrice per week. Survival and body weight were monitored. On a twice per week dosing schedule, the MTDs of MSI-344 and MSI-1857 were 12 and 134 mg/kg/week, respectively. […] On a thrice per week dosing schedule, no deaths occurred in any groups, with high dose groups of MSI-344 and MSI-1857 receiving 90 mg/kg/week and […], respectively. A transient body weight loss was seen after initial dosing in most MSI-344 and MSI-1857 groups. No body weight loss greater than 6% occurred in any group on the thrice per week dosing schedule.
To determine estimates of MTDs of MSI-344 and MSI-1857 when administered intraperitoneally on repeat-dose regimens in SCID mice. The selection of SCID mice was based on the future plans of using this strain as host for xenograft human tumor efficacy models, and a pre-requisite for determining MTD for chronic administration that may be used during the efficacy model.
SCID mice are immunocompromised and therefore they were housed and handled in sterile environments. They had access to sterile water and sterilized chow ad lib.
A 1 mg/mL solution of MSI-344 was made in saline (0.9% sodium chloride injection USP, Abbott, North Chicago, Ill.) corrected for peptide content. Solutions of MSI-344 at concentrations of 0.6, 0.3, and 0.1 mg/mL were made by diluting the 1 mg/mL solution using saline as diluent. A 10 mg/mL solution of MSI-1857 was made in saline.
Solutions of MSI-1857 at concentrations of 6.7, 3.3, 3, 2, and 1 mg/mL were made by diluting the 10 mg/mL solution using saline as diluent.
Mice (four mice per dose group) were intraperitoneally administered MSI-344 or MSI-1857 using an injection volume of 10 mL/kg of the appropriate solution concentration on a twice per week (Groups 1 through 7) or thrice per week (Groups 8 through 15) dosing schedule every week for 20 weeks. Survival was monitored daily and body weights were recorded three times per week An interim analysis was performed at 3 weeks and the results of this interim analysis is presented in the present report.

Sequence: GIGKFLKKAKKFGKAFVKILKK [MSI-344]
- MIC P. aeruginosa ATCC 27853 [1]: 16 µg/mL
- MIC S. aureus ATCC 29213 (S. aureus ATCC 29213): 128 µg/mL
- effect of initial dosings on body weight ([2]; all surviving groups except the low dose group on the thrice-per-week schedule): dose-dependent transient body weight loss
- MTD, thrice per week dosing schedule ([2]; i.p., SCID mice, interim analysis at 3 weeks): greater than or equal to 18 mg/kg/week
- MTD at 504 h ([2]; SCID mice, interim analysis at 3 weeks, read-out: MTD, thrice per week dosing schedule): ≥ 2.57 mg/kg/day
- MTD at 504 h ([2]; SCID mice, interim analysis at 3 weeks, read-out: MTD, twice per week dosing schedule (converted)): 1.71 mg/kg/day
